Laboratory results published in paper PMC3051820 (The Journal of Cell Biology, 2011).

Biological target: mitochondrial complex I (Mus musculus, UniProt P03888+Q91WD5+Q9DC70)
Experiment: polarography: oxygen consumption in cells with complex I-specific substrates
Assay type: cell-based

Sequence of mitochondrial complex I (Q91VD9 24-727): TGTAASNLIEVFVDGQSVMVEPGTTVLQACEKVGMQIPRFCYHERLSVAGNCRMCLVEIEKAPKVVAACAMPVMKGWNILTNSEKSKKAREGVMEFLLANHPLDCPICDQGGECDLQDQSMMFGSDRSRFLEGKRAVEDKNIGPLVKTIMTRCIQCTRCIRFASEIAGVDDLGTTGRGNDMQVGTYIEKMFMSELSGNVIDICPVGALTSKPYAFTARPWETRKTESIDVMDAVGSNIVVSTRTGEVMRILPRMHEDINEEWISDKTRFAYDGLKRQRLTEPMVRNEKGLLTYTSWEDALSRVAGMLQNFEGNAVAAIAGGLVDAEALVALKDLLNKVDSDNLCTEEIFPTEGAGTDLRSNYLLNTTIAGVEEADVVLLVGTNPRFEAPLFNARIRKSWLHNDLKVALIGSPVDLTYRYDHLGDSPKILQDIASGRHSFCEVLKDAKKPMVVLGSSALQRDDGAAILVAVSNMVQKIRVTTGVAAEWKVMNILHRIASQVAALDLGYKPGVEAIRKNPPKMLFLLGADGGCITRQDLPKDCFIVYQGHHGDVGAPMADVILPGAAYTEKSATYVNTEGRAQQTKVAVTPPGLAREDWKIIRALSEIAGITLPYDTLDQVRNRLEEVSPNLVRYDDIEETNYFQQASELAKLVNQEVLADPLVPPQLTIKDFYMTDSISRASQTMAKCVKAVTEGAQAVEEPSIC
Sequence of mitochondrial complex I (Q91WD5 34-463): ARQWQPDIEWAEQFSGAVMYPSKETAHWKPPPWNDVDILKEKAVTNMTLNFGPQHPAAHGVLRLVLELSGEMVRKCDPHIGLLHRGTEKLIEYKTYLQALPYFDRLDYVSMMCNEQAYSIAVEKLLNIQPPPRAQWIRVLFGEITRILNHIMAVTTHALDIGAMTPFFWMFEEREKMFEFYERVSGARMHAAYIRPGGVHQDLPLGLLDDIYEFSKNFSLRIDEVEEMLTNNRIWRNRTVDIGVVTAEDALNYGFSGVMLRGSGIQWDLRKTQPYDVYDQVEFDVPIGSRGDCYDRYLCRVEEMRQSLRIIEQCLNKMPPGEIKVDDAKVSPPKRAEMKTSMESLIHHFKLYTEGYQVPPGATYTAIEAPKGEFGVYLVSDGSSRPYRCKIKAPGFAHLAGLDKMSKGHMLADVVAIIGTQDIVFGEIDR
Sequence of mitochondrial complex I (P03888 whole entry): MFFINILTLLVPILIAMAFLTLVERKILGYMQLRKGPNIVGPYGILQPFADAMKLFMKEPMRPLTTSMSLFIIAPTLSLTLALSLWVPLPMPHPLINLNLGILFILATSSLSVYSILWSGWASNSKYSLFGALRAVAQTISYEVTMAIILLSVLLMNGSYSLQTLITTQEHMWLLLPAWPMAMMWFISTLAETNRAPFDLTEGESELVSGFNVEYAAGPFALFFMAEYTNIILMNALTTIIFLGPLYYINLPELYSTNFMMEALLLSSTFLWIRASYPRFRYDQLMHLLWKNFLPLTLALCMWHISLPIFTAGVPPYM
Sequence of mitochondrial complex I (Q9DC70 36-224): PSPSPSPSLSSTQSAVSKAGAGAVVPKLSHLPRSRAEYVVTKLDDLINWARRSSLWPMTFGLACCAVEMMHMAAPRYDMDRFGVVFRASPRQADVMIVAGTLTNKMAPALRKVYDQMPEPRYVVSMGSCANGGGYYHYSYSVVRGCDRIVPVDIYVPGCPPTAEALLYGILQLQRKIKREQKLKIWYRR
Sequence of mitochondrial complex I (Q91YT0 21-464, further chain): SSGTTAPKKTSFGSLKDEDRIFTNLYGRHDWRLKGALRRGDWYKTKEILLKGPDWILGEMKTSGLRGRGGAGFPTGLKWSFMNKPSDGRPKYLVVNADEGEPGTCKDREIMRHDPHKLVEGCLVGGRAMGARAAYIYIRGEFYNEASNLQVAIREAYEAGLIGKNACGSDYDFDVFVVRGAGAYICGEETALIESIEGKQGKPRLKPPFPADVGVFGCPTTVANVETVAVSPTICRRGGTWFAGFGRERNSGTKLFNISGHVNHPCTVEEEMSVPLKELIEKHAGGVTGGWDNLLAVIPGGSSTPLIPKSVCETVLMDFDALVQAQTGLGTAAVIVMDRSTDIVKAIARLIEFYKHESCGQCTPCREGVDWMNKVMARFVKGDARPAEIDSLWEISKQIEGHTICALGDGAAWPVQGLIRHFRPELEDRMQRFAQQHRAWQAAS

SMILES | IC50
C/C=C(\C)[C@H](O)[C@H](C)/C=C(C)/C=C/C/C(C)=C/Cc1nc(OC)c(OC)c(O)c1C [piericidin A] | 10 nM
C=C(C)[C@H]1Cc2c(ccc3c2O[C@@H]2COc4cc(OC)c(OC)cc4[C@@H]2C3=O)O1 [rotenone] | 20 nM
